Assay: Antiviral activity against SARS-CoV-2 infected in human Huh-7 cells overexpressing human ACE2 pre-infected with cells for 1 hr followed by compound addition and measured 23 hrs post infection by virus plaque assay
Format: functional, cell-based

SMILES	EC50 [µM]
CC(=O)/C=C/[C@H](C[C@@H]1CCNC1=O)NC(=O)[C@H](CC(C)C)NC(=O)c1ccc(F)cc1	7.63
CC(=O)/C=C/[C@H](C[C@@H]1CCNC1=O)NC(=O)[C@H](CC1CC1)NC(=O)c1ccccc1F	10.3
CC(=O)/C=C/[C@H](C[C@@H]1CCNC1=O)NC(=O)[C@H](CC(C)(C)C)NC(=O)c1ccc(F)cc1	3.5
